Our source for the IC50 values is US20080114007A1 (priority 2006, published 2008).

Chain of CSF-1R (P07333 20-972): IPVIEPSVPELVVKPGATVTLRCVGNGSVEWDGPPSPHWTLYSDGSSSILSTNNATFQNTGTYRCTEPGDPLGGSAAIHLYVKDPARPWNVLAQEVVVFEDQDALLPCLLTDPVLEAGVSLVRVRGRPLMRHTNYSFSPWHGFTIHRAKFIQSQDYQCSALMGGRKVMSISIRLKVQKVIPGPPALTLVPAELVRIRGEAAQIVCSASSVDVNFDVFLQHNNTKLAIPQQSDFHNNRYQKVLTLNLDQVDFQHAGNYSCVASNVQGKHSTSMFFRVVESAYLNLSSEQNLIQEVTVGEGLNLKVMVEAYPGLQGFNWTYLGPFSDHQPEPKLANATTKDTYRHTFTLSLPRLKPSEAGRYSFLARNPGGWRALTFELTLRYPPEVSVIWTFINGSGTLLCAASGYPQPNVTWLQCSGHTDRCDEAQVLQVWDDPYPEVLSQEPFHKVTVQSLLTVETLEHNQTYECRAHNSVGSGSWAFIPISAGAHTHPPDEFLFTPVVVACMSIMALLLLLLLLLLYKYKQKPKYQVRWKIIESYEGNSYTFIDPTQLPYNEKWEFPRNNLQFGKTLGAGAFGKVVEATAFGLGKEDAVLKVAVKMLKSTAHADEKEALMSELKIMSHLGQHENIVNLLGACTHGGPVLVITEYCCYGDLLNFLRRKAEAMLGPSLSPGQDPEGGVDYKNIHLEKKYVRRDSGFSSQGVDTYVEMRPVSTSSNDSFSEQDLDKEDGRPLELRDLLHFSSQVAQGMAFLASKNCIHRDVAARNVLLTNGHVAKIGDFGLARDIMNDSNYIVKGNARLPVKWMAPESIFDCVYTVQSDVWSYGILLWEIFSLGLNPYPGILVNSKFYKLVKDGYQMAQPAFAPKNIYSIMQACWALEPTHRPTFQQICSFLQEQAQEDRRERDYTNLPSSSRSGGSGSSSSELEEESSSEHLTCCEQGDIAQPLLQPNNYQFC

The test addresses CSF-1R (Homo sapiens, UniProt P07333). Nature of the test: Peptide (non-phosphorylated) assay, fluorescence polarization competition immunoassay. As to conditions: 0.7 nM CSF-1R, 308 μM SYEGNSYTFIDPTQ peptide, 1 mM ATP, 80 min; mean of at least three determinations; read-out: c-fms Peptide IC50. It counts as biochemical. The essentials: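 Human CSF-1R kinase reaction started with ATP and run 80 min at room temperature, then stopped with EDTA. Phosphopeptide detected by fluorescence polarization competition using anti-phosphotyrosine antibody and PTK green tracer after 30 min. Controls used 4% DMSO, with EDTA added before reaction start for positive controls.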
Background: In fluorescence polarisation assays a small probe gives low polarisation when free and higher when bound to something large.
Regarding `CONC(=O)c1cn(-c2ccc3c(c2)CCC3)c2nc(Nc3ccc(C4C[C@@]5(C)O[C@@](C)(C4)[C@H]4OC(C)(C)O[C@H]45)cc3)ncc2c1=O` (stereo partly drawn) [Cpd 315, 8-indan-5-yl-5-oxo-2-[4-(2aR,1R,7S,6aS)-(1,4,4,7-tetramethyl-3,5,11-trioxa-tricyclo[5.3.1.0^2,6]undec-9-yl)-phenylamino]-5,8-dihydro-pyrido[2,3-d]pyrimidine-6-carboxylic acid methoxy-amide], the IC50 (as a rule, the point on the concentration scale where inhibition reaches its midpoint) came to 0.5 nM.

Take `CC(C)ONC(=O)c1cn(-c2ccc3c(c2)CCC3)c2nc(Nc3ccc(S(=O)(=O)N(C)C)cc3)ncc2c1=O` [Cpd 137, 2-(4-dimethylsulfamoyl-phenylamino)-8-indan-5-yl-5-oxo-5,8-dihydro-pyrido[2,3-d]pyrimidine-6-carboxylic acid isopropoxy-amide]: the IC50 is 16 nM.

For the molecule `CONC(=O)c1cn(-c2ccc3c(c2)CCC3)c2nc(Nc3ccc(CCN4CC[C@H](F)C4)cc3)ncc2c1=O` [Cpd 253, 2-(4-{2-[(3S)-(3-fluoro-pyrrolidin-1-yl)]-ethyl}-phenylamino)-8-indan-5-yl-5-oxo-5,8-dihydro-pyrido[2,3-d]pyrimidine-6-carboxylic acid methoxy-amide], the half-maximal inhibitory concentration (IC50) is 0.66 nM.

Consider `CONC(=O)c1cn(-c2ccc3c(c2)CCC3)c2nc(Nc3ccc(CCN4CCCC(F)(F)C4)cc3)ncc2c1=O`, for which the IC50 turned out to be 1.7 nM.

In the case of `O=C(NCCO)c1cn(C2CCCC2)c2nc(Nc3ccc(CCN4CCCC4)cc3)ncc2c1=O` [Cpd 43, 8-cyclopentyl-5-oxo-2-[4-(2-pyrrolidin-1-yl-ethyl)-phenylamino]-5,8-dihydro-pyrido[2,3-d]pyrimidine-6-carboxylic acid (2-hydroxy-ethyl)-amide], the IC50 was 31 nM.

`CCONC(=O)c1cn(-c2ccc3c(c2)CCC3)c2nc(Nc3ccc(C[C@H]4COC(=O)N4)cc3)ncc2c1=O` [Cpd 68, (S)-8-indan-5-yl-5-oxo-2-[4-(2-oxo-oxazolidin-4-ylmethyl)-phenylamino]-5,8-dihydro-pyrido[2,3-d]pyrimidine-6-carboxylic acid ethoxy-amide]: the IC50 was found to be 0.7 nM.

Consider `CCN1CCCCC1c1ccc(Nc2ncc3c(=O)c(C(=O)NOC)cn(-c4ccc5c(c4)CCC5)c3n2)cc1` (centres unmarked) [Cpd 244, 2-[4-(1-ethyl-piperidin-2-yl)-phenylamino]-8-indan-5-yl-5-oxo-5,8-dihydro-pyrido[2,3-d]pyrimidine-6-carboxylic acid methoxy-amide], for which the IC50 came to 0.64 nM.

For the molecule `CONC(=O)c1cn(-c2ccc3c(c2)CCC3)c2nc(Nc3ccc(CCN4CC(O)C4)cc3)ncc2c1=O` [Cpd 254, 2-{4-[2-(3-hydroxy-azetidin-1-yl)-ethyl]-phenylamino}-8-indan-5-yl-5-oxo-5,8-dihydro-pyrido[2,3-d]pyrimidine-6-carboxylic acid methoxy-amide], the IC50 was 0.52 nM.

As for `CCc1ccc(-n2cc(C(=O)NOC)c(=O)c3cnc(Nc4ccc5[nH]ccc5c4)nc32)cc1` [Cpd 285, 8-(4-ethyl-phenyl)-2-(1H-indol-5-ylamino)-5-oxo-5,8-dihydro-pyrido[2,3-d]pyrimidine-6-carboxylic acid methoxy-amide], the IC50 was 0.8 nM.

On to `CCc1ccc(-n2cc(C(=O)NOC)c(=O)c3cnc(Nc4ccc(CCN5CCC[C@@H](O)C5)cc4)nc32)cc1` [Cpd 240, 8-(4-ethyl-phenyl)-2-(4-{2-[(3R)-(3-hydroxy-piperidin-1-yl)]-ethyl}-phenylamino)-5-oxo-5,8-dihydro-pyrido[2,3-d]pyrimidine-6-carboxylic acid methoxy-amide], for which the concentration for half-maximal inhibition (IC50) was 0.28 nM.

Regarding `CCc1ccc(-n2cc(C(=O)NOC)c(=O)c3cnc(Nc4cccc(N5CCN(C)CC5)c4)nc32)cc1` [Cpd 321, 8-(4-ethyl-phenyl)-2-[3-(4-methyl-piperazin-1-yl)-phenylamino]-5-oxo-5,8-dihydro-pyrido[2,3-d]pyrimidine-6-carboxylic acid methoxy-amide], the IC50 is 0.5 nM.
